Laboratory results taken from PubChem BioAssay AID192 (DTP/NCI, 2004).
Where “and” joins values, the source holds several entries; their conditions need not be identical. Identical values can stand only once. Inconclusive results and toxic doses are left out.

Tested on: BDF1 mice, B16 melanoma ip, median survival T/C
Assay: NCI In Vivo Anticancer Drug Screen. Data for tumor model B16 Melanoma (intraperitoneal) in B6D2F1 (BDF1) mice
Conditions: endpoint: median survival time, higher = longer survival
Procedure, shortened: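 Compounds were tested in mice carrying transplantable tumors. Survival or tumor size was recorded, and each value is the treated-group measurement (T) divided by that of the vehicle-treated control group (C).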

[1] = dose: 12.5 mg/kg/injection, schedule: Q01DX009 (ip), vehicle: Klucel (hydroxypropylcellulose) (HPC)
[2] = dose: 25.0 mg/kg/injection, schedule: Q01DX009 (ip), vehicle: Klucel (hydroxypropylcellulose) (HPC)
[3] = dose: 50.0 mg/kg/injection, schedule: Q01DX009 (ip), vehicle: Klucel (hydroxypropylcellulose) (HPC)
[4] = dose: 100.0 mg/kg/injection, schedule: Q01DX009 (ip), vehicle: Klucel (hydroxypropylcellulose) (HPC)
[5] = dose: 200.0 mg/kg/injection, schedule: Q01DX009 (ip), vehicle: Klucel (hydroxypropylcellulose) (HPC)
[6] = dose: 12.5 mg/kg/injection, schedule: Q01DX009 (ip), vehicle: saline with Tween-80
[7] = dose: 25.0 mg/kg/injection, schedule: Q01DX009 (ip), vehicle: saline with Tween-80
[8] = dose: 50.0 mg/kg/injection, schedule: Q01DX009 (ip), vehicle: saline with Tween-80
[9] = dose: 100.0 mg/kg/injection, schedule: Q01DX009 (ip), vehicle: saline with Tween-80
[10] = dose: 200.0 mg/kg/injection, schedule: Q01DX009 (ip), vehicle: saline with Tween-80
[11] = dose: 25.0 mg/kg/injection, schedule: Q01DX009 (ip), vehicle: saline
[12] = dose: 50.0 mg/kg/injection, schedule: Q01DX009 (ip), vehicle: saline
[13] = dose: 100.0 mg/kg/injection, schedule: Q04DX003 (ip), vehicle: Klucel (hydroxypropylcellulose) (HPC)
[14] = dose: 200.0 mg/kg/injection, schedule: Q04DX003 (ip), vehicle: Klucel (hydroxypropylcellulose) (HPC)

## CC12CCC(OC3OC(CO)C(OC4OC(CO)C(O)C(O)C4O)C(O)C3O)CC1CCC1C2CCC2(C)C(C3=CC(=O)OC3)CCC12O (configuration not stated)
dose: 6.0 mg/kg/injection, schedule: Q01DX009 (ip), vehicle: saline
  T/C: 102 % of control
dose: 12.0 mg/kg/injection, schedule: Q01DX009 (ip), vehicle: saline
  T/C: 114 % of control
dose: 24.0 mg/kg/injection, schedule: Q01DX009 (ip), vehicle: saline
  T/C: 102 % of control
dose: 48.0 mg/kg/injection, schedule: Q01DX009 (ip), vehicle: saline
  T/C: 92 % of control

## Cc1cccc2c(Nc3ccc(NS(C)(=O)=O)cc3)c3ccc([N+](=O)[O-])cc3nc12
dose: 8.0 mg/kg/injection, schedule: Q01DX009 (ip), vehicle: saline with Tween-80
  T/C: 155 % of control
dose: 12.0 mg/kg/injection, schedule: Q01DX009 (ip), vehicle: saline with Tween-80
  T/C: 194 % of control

## COc1ccc(C(Nc2ccccc2)C(=O)c2ccccc2)cc1 (configuration not stated)
dose: 3.12 mg/kg/injection, schedule: Q01DX009 (ip), vehicle: Klucel (hydroxypropylcellulose) (HPC)
  T/C: 90 % of control
dose: 6.25 mg/kg/injection, schedule: Q01DX009 (ip), vehicle: Klucel (hydroxypropylcellulose) (HPC)
  T/C: 106 % of control
[1]
  T/C: 89 % of control
[2]
  T/C: 89 % of control and 90 % of control

## CC[C@@H]1C[C@@H]2CN3CCc4c([nH]c5ccc(OC)cc45)C(C(=O)OC)(C2)C13
[3]
  T/C: 102 % of control
[4]
  T/C: 106 % of control
[5]
  T/C: 111 % of control

## ClC1CC[N-]CC1.ClC1CC[N-]CC1.O=C(O)CC(=O)O.[Pt+2]
[6]
  T/C: 96 % of control
[7]
  T/C: 95 % of control
[8]
  T/C: 96 % of control
[9]
  T/C: 95 % of control
[10]
  T/C: 104 % of control

## C1CCN(CCC2CCCCN2)CC1 (configuration not stated)
[11]
  T/C: 106 % of control
[12]
  T/C: 100 % of control

## CCCCCCCCN(C)N=Nc1ccc(Cl)cc1C(=O)O
[8]
  T/C: 103 % of control
[9]
  T/C: 107 % of control

## O=C(O)C(=O)O.O=C(O)C(=O)O.OO.OO.[Nb]
dose: 3.13 mg/kg/injection, schedule: Q01DX009 (ip), vehicle: water
  T/C: 100 % of control
dose: 6.25 mg/kg/injection, schedule: Q01DX009 (ip), vehicle: water
  T/C: 101 % of control
dose: 12.5 mg/kg/injection, schedule: Q01DX009 (ip), vehicle: water
  T/C: 103 % of control
dose: 25.0 mg/kg/injection, schedule: Q01DX009 (ip), vehicle: water
  T/C: 112 % of control
dose: 50.0 mg/kg/injection, schedule: Q01DX009 (ip), vehicle: water
  T/C: 96 % of control

## O=C1OCC(O)C(O)C(O)C(O)C1O (configuration not stated)
dose: 100.0 mg/kg/injection, schedule: Q01DX009 (ip), vehicle: saline
  T/C: 113 % of control
dose: 200.0 mg/kg/injection, schedule: Q01DX009 (ip), vehicle: saline
  T/C: 106 % of control
dose: 400.0 mg/kg/injection, schedule: Q01DX009 (ip), vehicle: saline
  T/C: 120 % of control

## CCCCCCCCCCCCCCCCN(C)S(=O)(=O)c1ccc2sc(SC)[n+](C)c2c1 (tested in a mixture with another compound)
dose: 12.5 mg/kg/injection, schedule: Q04DX003 (ip), vehicle: saline with Tween-80
  T/C: 100 % of control
dose: 25.0 mg/kg/injection, schedule: Q04DX003 (ip), vehicle: saline with Tween-80
  T/C: 100 % of control

## Cc1ccc(CNc2ccc(Cl)cc2)cc1
[3]
  T/C: 91 % of control
[4]
  T/C: 94 % of control

## CNCC(O)c1cccc(O)c1 (configuration not stated)
dose: 1.56 mg/kg/injection, schedule: Q01DX009 (ip), vehicle: saline
  T/C: 111 % of control
dose: 3.12 mg/kg/injection, schedule: Q01DX009 (ip), vehicle: saline
  T/C: 117 % of control
dose: 12.5 mg/kg/injection, schedule: Q01DX009 (ip), vehicle: saline
  T/C: 108 % of control
[11]
  T/C: 105 % of control
[12]
  T/C: 95 % of control

## Nc1cc(S(N)(=O)=O)ccc1SSc1ccc(S(N)(=O)=O)cc1N
[9]
  T/C: 95 % of control
[10]
  T/C: 93 % of control

## C=C1OC(=O)OC1(C)CC(OC)OC (configuration not stated)
[9]
  T/C: 102 % of control
[10]
  T/C: 113 % of control
dose: 400.0 mg/kg/injection, schedule: Q01DX009 (ip), vehicle: saline with Tween-80
  T/C: 108 % of control

## O=C(C(=O)c1ccc(Br)cc1)c1ccc(Br)cc1
[1]
  T/C: 108 % of control
[2]
  T/C: 107 % of control
[3]
  T/C: 91 % of control

## O=C(/C=C/c1cccc2ccccc12)c1ccc(Cl)cc1
[3]
  T/C: 92 % of control
dose: 50.0 mg/kg/injection, schedule: Q04DX003 (ip), vehicle: Klucel (hydroxypropylcellulose) (HPC)
  T/C: 103 % of control
[4]
  T/C: 96 % of control
[13]
  T/C: 100 % of control
[5]
  T/C: 92 % of control
[14]
  T/C: 93 % of control

## Cc1cc(=O)n2c3c(c4c(cc13)c(CN(C)C)cc(=O)n4C)OC2
dose: 6.25 mg/kg/injection, schedule: Q01DX009 (ip), vehicle: saline with Tween-80
  T/C: 103 % of control
[6]
  T/C: 101 % of control
[7]
  T/C: 113 % of control
[8]
  T/C: 117 % of control

## Cc1ccc(NC(=O)c2ccc(Cl)cc2Cl)cc1Cl
[13]
  T/C: 102 % of control
[14]
  T/C: 92 % of control
dose: 400.0 mg/kg/injection, schedule: Q04DX003 (ip), vehicle: Klucel (hydroxypropylcellulose) (HPC)
  T/C: 95 % of control

## Cc1ccc(S(=O)(=O)NC(CSCc2ccccc2)C(=O)O)cc1 (configuration not stated)
[8]
  T/C: 92 % of control
[9]
  T/C: 86 % of control
